These results are taken from the NIST ThermoML archive (doi:10.1021/je800345j).

For series [1] the following is noted: 298.15 K; 101.33 kPa; Liquid.
Series [2] is described as follows: refractive index (Na D-line) (dimensionless). Conditions: 293.15 K; 101.33 kPa; Liquid; Standard Abbe refractometry.

± gives the expanded uncertainty stated by the source.

As to `C=C(C)OC(C)=O` [1-methylvinyl ethanoate], the mass density in series [1] is 927.8 ± 0.3 kg/m3. The refractive index in series [2] was found to be 1.4033 ± 0.0004.
Turning to `CC(=O)CC(C)=O` [2,4-pentanedione], the mass density in series [1] amounted to 971.9 ± 0.3 kg/m3. In series [2], the refractive index stood at 1.4491 ± 0.0004.
For the compound `CC(=O)O` [acetic acid], in series [1], the mass density is 1047.4 ± 0.3 kg/m3. Further, the refractive index in series [2] is listed as 1.372 ± 0.0004.
